Patent US20200315996A1 (Board of Trustees, Southern Illinois University, priority 2016, published 2020)

Experiments:
NOS2 (iNOS) = test: Immunohistochemistry of endometriotic lesions, NOS2; format: in vivo, mice; details: 3 weeks; for % of NOS2 positive cells/total cells/0.007 mm^2, Stroma: control 75.2 ± 4.6
Excerpt: (§1) The presence and location of different proteins in the tissues obtained from the recipient mice. Samples of uterine tissue were isolated from the recipient mice, fixed by standard histological methods, and embedded in paraffin. Thin sections (5 μm) of the paraffin-embedded tissues were screened with standard immunohistochemical methods using antibodies to identify the expression of in the uterine tissues. […] The expression of MKI67, ESR1, PGR, p-CHUK, p-STAT3, NOS2 and PTGS2 proteins in uterine tissues, as determined by immunohistochemical analysis of uterine tissue sections, was semiquantitatively analyzed. Levels of apoptosis were analyzed by TUNEL assay and also semiquantitatively analyzed. […] Histological sections were obtained from 4 different lesions. For each section, three different areas measuring 0.007 mm^2 were chosen. In each of those areas, the total number of epithelial or stromal cells was counted, as was the number of cells that tested positive for expressing MKI67 (a marker of cellular proliferation), steroid receptors ESR1 and PGR, and inflammatory signaling molecules p-CHUK, p-STAT3, NOS2 and PTGS2 proteins.

endometriotic lesions [1] = test: Endometriotic lesions examined on PND 21 (Study 2); format: in vivo, mice; details: 200 mg/kg b.w./day; examined 3 weeks after the final dosage
Description: The sham surgery was performed following the same steps as the endometriosis surgery except that no donor tissues were implanted onto the peritoneal walls of those mice; only sutures were applied to the peritoneal walls. […] The recipient mice continued receiving oral daily niclosamide treatments until mouse pups were born, after which niclosamide treatment was discontinued. Three weeks after the pups were born, on postnatal day (PND) 21, the recipient mice were necropsied and the pups were weaned. For each mated mouse, the following parameters were measured and recorded: the time of the formation of the vaginal plug after mating (days); the length of time that the mated mouse gestated or was pregnant (days); the number of pups born to each mated mouse; and the size and volume of the endometriotic lesions harvested from the mice after necropsy. Tissues were harvested from the mice, including endometriotic lesions and peritoneal walls to analyze the expression of proteins and genes of interest.

mice = details: cited from earlier work
[2] = ORGANIZATION WH, 2002; cited from earlier work
p-STAT3 = test: Immunohistochemistry of endometriotic lesions, p-STAT3; format: in vivo, mice; details: 3 weeks; for % of p-STAT3 positive cells/total cells/0.007 mm^2, Stroma: control 11.5 ± 4.4
Excerpt: as §1

endometriotic lesions [3] = test: Mouse model of endometriosis, growth of implanted endometriotic lesions (Study 1); format: in vivo, mice; details: for lesion weight / lesion volume: 3 weeks; for lesion weight: controls 0.044±0.007 g; for lesion volume: controls 40.1±6.6 mm3; for total weight of lesions: controls 154.0±29.3 mg
Excerpt: An experimental mouse model of endometriosis was established adopting procedures described previously with some modification [Han, 2012; Hirata, 2005; Kulak, 2011; Pelch, 2012; Zhao, 2014]. Female, eight week old B6-GFP mice were used as donor mice. These mice are transgenic mice whose cells endogenously express a green fluorescent protein (GFP) which is detectable under fluorescent light. When implanted to a GFP-negative recipient mouse, tissue implants from GFP-positive donor mice can be distinguished from the tissues of the recipient mice. Ectopic GFP-positive lesions were microscopically examined to evaluate the implants for accurate growth and progression. Briefly, the uterine horns were removed from donor mice during the diestrus stage of the reproductive cycle. […] Then, the uterine pieces were maintained in warmed DMEM/F12 medium (#10-090, Corning). […] The recipient mice were selected during the diestrus stage and anesthetized. In each mouse, a longitudinal abdominal incision was made, and uterine pieces from donor mice were sutured to the right or left side of the peritoneal walls of each animal (implanting each 2-mm and 3-mm piece per side) using a 6-0 braided silk suture (# SUT-1073-11, Roboz). Then, the abdominal incision was closed with a 4-0 braided silk suture (# SUT-1073-31, Roboz). […] Uterine tissue pieces of B6-GFP mice (donor) were implanted into the peritoneal walls of recipient mice. […] The lesion volume was calculated according to the formula (L×W^2), where L is length and W is width [[…], 2007].

rats = details: orally for 4 weeks; cited from earlier work

O=C(Nc1ccc([N+](=O)[O-])cc1Cl)c1cc(Cl)ccc1O [niclosamide, 5-chloro-N-(2-chloro-4-nitrophenyl)-2-hydroxybenzamide]
% of NOS2 positive cells/total cells/0.007 mm^2, Stroma (NOS2 (iNOS); 100 mg/kg b.w./day oral): 57.8 ± 4.3% | % of NOS2 positive cells/total cells/0.007 mm^2, Epithelium (NOS2 (iNOS); 100 mg/kg b.w./day oral, control 99.5 ± 0.4): 99.5 ± 0.5% | % of NOS2 positive cells/total cells/0.007 mm^2, Stroma (NOS2 (iNOS); 200 mg/kg b.w./day oral): 61.9 ± 5.7% | % of NOS2 positive cells/total cells/0.007 mm^2, Epithelium (NOS2 (iNOS); 200 mg/kg b.w./day oral, control 99.5 ± 0.4, p < 0.05): 86.2 ± 5.9 % | lesion sizes on PND 21 (endometriotic lesions [1]): maintained the reduction of lesion sizes | LD50, acute toxicity (mice): > 1500 mg/kg b.w. | water solubility [2]: < 20 µM | % of p-STAT3 positive cells/total cells/0.007 mm^2, Stroma (p-STAT3; 100 mg/kg b.w./day oral): 6.9 ± 1.9% | % of p-STAT3 positive cells/total cells/0.007 mm^2, Epithelium (p-STAT3; 100 mg/kg b.w./day oral, control 54.1 ± 3.9): 59.0 ± 5.4% | % of p-STAT3 positive cells/total cells/0.007 mm^2, Stroma (p-STAT3; 200 mg/kg b.w./day oral): 4.1 ± 1.0% | % of p-STAT3 positive cells/total cells/0.007 mm^2, Epithelium (p-STAT3; 200 mg/kg b.w./day oral, control 54.1 ± 3.9, p < 0.001): 26.4 ± 3.8 % | lesion weight (endometriotic lesions [3]; 100 mg/kg b.w./day oral): 0.023 ± 0.004 g | lesion volume (endometriotic lesions [3]; 100 mg/kg b.w./day oral, no significant difference): 23.15±5.0 mm3 | lesion weight (endometriotic lesions [3]; 200 mg/kg b.w./day oral): 0.016 ± 0.003 g | lesion volume (endometriotic lesions [3]; 200 mg/kg b.w./day oral): 7.4±0.8 mm3 | number of lesions between treatment groups (endometriotic lesions [3]; oral 50, 100 or 200 mg/kg b.w. vs controls): did not differ | total weight of lesions (endometriotic lesions [3]; oral niclosamide 50 mg/kg b.w., n=7): 114.9 ± 31.6 mg | total weight of lesions (endometriotic lesions [3]; oral niclosamide 100 mg/kg b.w., n=9): 76.2 ± 18.3 mg | total weight of lesions (endometriotic lesions [3]; oral niclosamide 200 mg/kg b.w., n=20): 44.9 ± 7.43 mg | dose that elicits no adverse effects (rats): up to 2000 mg/kg daily
